Reference: PubChem BioAssay (NCI)
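48-hour exposure; five concentrations; linearly interpolated endpoints. Here, GI50 denotes the concentration required for 50% inhibition of growth. TGI denotes the concentration required for complete inhibition of growth.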

Legend:
Test in all cases: NCI anticancer screen, dose series, 48 h
DLD-1 colon = system: DLD-1 colon
DMS 114 small cell lung = system: DMS 114 small cell lung
DMS 273 small cell lung = system: DMS 273 small cell lung
LXFL 529 NSCLC = system: LXFL 529 NSCLC
M19-MEL melanoma = system: M19-MEL melanoma
RXF-631 renal = system: RXF-631 renal
SNB-78 CNS = system: SNB-78 CNS
XF 498 CNS = system: XF 498 CNS
KM20L2 colon = system: KM20L2 colon

## COC(=O)C1C(C)N1C (configuration not stated)
DLD-1 colon
  TGI: > 100 µM
DMS 114 small cell lung
  TGI: > 100 µM
DMS 273 small cell lung
  TGI: > 100 µM
LXFL 529 NSCLC
  TGI: > 100 µM
M19-MEL melanoma
  TGI: > 100 µM
RXF-631 renal
  TGI: > 100 µM
SNB-78 CNS
  TGI: > 100 µM
XF 498 CNS
  TGI: > 100 µM

## CCOC(=O)C1CCn2c(nc3c2c(=O)n(C)c(=O)n3C)S1 (configuration not stated)
DLD-1 colon
  TGI: > 100 µM
DMS 273 small cell lung
  TGI: > 100 µM
KM20L2 colon
  TGI: > 100 µM
LXFL 529 NSCLC
  TGI: > 100 µM
SNB-78 CNS
  TGI: > 100 µM

## C/C(=N\NC(=O)c1cccnc1)c1cccc(/C(C)=N/NC(=O)c2cccnc2)n1
DLD-1 colon
  TGI: > 100 µM
DMS 114 small cell lung
  GI50: 2.7 µM
  TGI: 15.9 µM
DMS 273 small cell lung
  GI50: 5.02 µM
  TGI: 25.5 µM
KM20L2 colon
  TGI: > 100 µM
LXFL 529 NSCLC
  GI50: 2.47 µM
  TGI: > 100 µM
M19-MEL melanoma
  TGI: 68.6 µM
SNB-78 CNS
  GI50: 7.53 µM
  TGI: 97.9 µM

## CC(Sc1ccccc1)C(CO)(CO)[N+](=O)[O-] (configuration not stated)
DLD-1 colon
  TGI: 29 µM
DMS 114 small cell lung
  TGI: 32.5 µM
DMS 273 small cell lung
  TGI: > 100 µM
KM20L2 colon
  TGI: 31.7 µM
LXFL 529 NSCLC
  TGI: 27.5 µM
M19-MEL melanoma
  TGI: 30.9 µM
SNB-78 CNS
  TGI: 66.7 µM

## C[C@]12CC[C@@H]3c4ccccc4CC[C@H]3[C@@H]1CC[C@@H]2O
DLD-1 colon
  TGI: > 100 µM
DMS 273 small cell lung
  TGI: > 100 µM
KM20L2 colon
  TGI: > 100 µM
LXFL 529 NSCLC
  TGI: > 100 µM
M19-MEL melanoma
  TGI: > 100 µM
SNB-78 CNS
  TGI: > 100 µM
